In US7105513B2, “Acylated, heteroaryl-condensed cycloalkenylamines and their use as pharmaceuticals” (Sanofi-Avertis Deutschland GmbH, priority 2002, dated 2006):
Where a name gives a salt, the structure may show the parent alone.

Tested on: eNOS promoter
Test: Activation of eNOS transcription (eNOS promoter-luciferase reporter gene assay)
Type: cell-based
Conditions: Homo sapiens, Endothelial cell, 18 h, human endothelial cell line stably transfected with eNOS promoter-firefly luciferase construct; 18 h incubation; EC50 determined graphically; read-out: EC50 of transcription induction ratio (TIR)
Experimental: Determination of Activation of eNOS Transcription
Activation of eNOS transcription was determined as described in detail in Li et al., “Activation of protein kinase C alpha and/or epsilon enhances transcription of the human endothelial nitric oxide synthase gene”, Mol. Pharmacol. 53 (1998) 630, the content of which is incorporated herein by reference.
Briefly, a 3.5 kB long fragment 5′ of the starting codon of the eNOS gene was cloned, sequenced and cloned in firefly luciferase expression plasmids to monitor activation of the eNOS promoter by reporter gene activity. A human endothelial cell line stable transfected and expressing this promoter-reporter construct was used for compound testing. Cells were incubated for 18 h with compounds.
All compounds were dissolved in sterile dimethyl sulfoxide (DMSO). A final concentration of 0.5% DMSO in complete medium was allowed. Induction of reporter gene expression in these cells was measured using a standard luciferase assay system (Promega, Cat. No E150) according to the manufacturer's instructions. Luciferase induction in cells incubated with compounds were compared to those incubated with solvent alone. The ratio of both activities (transcription induction ratio, TIR) was plotted as a function of compound concentration,. Typically, TIR values started at low concentrations at a ratio of 1, indicating no compound effect, and extended up to a maximum TIR value TIR(max) which indicates the increase of the eNOS transcription. EC50 values of transcription induction ratios as a function of compound concentration were determined graphically.

Row | EC50 [µM] | SMILES
1 | 3.3 | Cc1ccc(C(=O)NC2Cc3cccnc3C2)c(C)n1 (single isomer, unassigned; enantiomer 1) [Example 5, N-(6,7-Dihydro-5H-[1]pyrindin-6-yl)-2,6-dimethylnicotinamide (enantiomer 1)]
2 | 12 | COc1ccc(C(=O)NC2Cc3cccnc3C2)cn1 (single isomer, unassigned; enantiomer 1) [Example 6, N-(6,7-Dihydro-5H-[1]pyrindin-6-yl)-6-methoxynicotinamide (enantiomer 1)]
3 | 23 | Cc1nc2ccc(C(=O)NC3Cc4cccnc4C3)cc2[nH]1 (single isomer, unassigned; enantiomer 1) [Example 7, 2-Methyl-3H-benzimidazole-5-carboxylic acid (6,7-dihydro-5H-[1]pyrindin-6-yl)amide (enantiomer 1)]
4 | 30 | COCc1ccc(C(=O)NC2Cc3cccnc3C2)cn1 (single isomer, unassigned; enantiomer 1) [Example 8, N-(6,7-Dihydro-5H-[1]pyrindin-6-yl)-6-methoxymethyinicotinamide (enantiomer 1)]
5 | 0.93 | O=C(NC1Cc2cccnc2C1)c1ccc2c(c1)OC(F)(F)O2 (single isomer, unassigned; enantiomer 1) [Example 9, 2,2-Difluorobenzo[1,3]dioxole-5-carboxylic acid (6,7-dihydro-5H-[1]pyrindin-6-yl)amide (enantiomer 1), trifluoroacetic acid salt]
6 | 0.8 | O=C(NC1Cc2cccnc2C1)c1ccc(Cl)cc1 (single isomer, unassigned; enantiomer 1) [Example 10, 4-Chloro-N-(6,7-dihydro-5H-[1]pyrindin-6-yl)benzamide (enantiomer 1), trifluoroacetic acid salt]
7 | 0.064 | Cc1ccc(C(=O)NC2CCCc3cccnc3C2)c(C)c1 (stereo not drawn) [Example 11, 2,4-Dimethyl-N-(6,7,8,9-tetrahydro-5H-cyclohepta[b]pyridin-8-yl)benzamide]
8 | 11 | Cc1cnc(C(=O)NC2Cc3ccsc3C2)c(N)n1 (stereo not drawn) [Example 12, 3-Amino-5-methylpyrazine-2-carboxylic acid (5,6-dihydro4H-cyclopenta[b]thiophen-5-yl)amide]
9 | 0.62 | Cc1ccc(C(=O)NC2Cc3ccsc3C2)c(C)n1 (stereo not drawn) [Example 13, N-(5,6-Dihydro-4H-cyclopenta[b]thiophen-5-yl)-2,6-dimethylnicotinamide, trifluoroacetic acid salt]
10 | 2.4 | COc1ccc(C(=O)NC2Cc3ccsc3C2)cn1 (stereo not drawn) [Example 14, N-(5,6-Dihydro-4 H-cyclopenta[b]thiophen-5-yl)-6-methoxynicotinamide]
11 | 3.1 | Cc1nc2ccc(C(=O)NC3Cc4ccsc4C3)cc2[nH]1 (stereo not drawn) [Example 15, 2-Methyl-3H-benzimidazole-5-carboxylic acid (5,6-dihydro-4H-cyclopenta[b]thiophen-5-yl)amide, trifluoroacetic acid salt]
12 | 0.2 | Cc1c(C(=O)NC2Cc3ccsc3C2)cnn1-c1ccccc1 (stereo not drawn) [Example 16, 5-Methyl-1-phenyl-1H-pyrazole-4-carboxylic acid (5,6-dihydro-4H-cyclopenta[b]thiophen-5-yl)amide]
13 | 0.35 | O=C(NC1Cc2ccsc2C1)c1cnn(-c2ccccc2)c1C(F)(F)F (stereo not drawn) [Example 17, 1-Phenyl-5-trifluoromethyl-1H-pyrazole-4-carboxylic acid (5,6-dihydro-4H-cyclopenta[b]thiophen-5-yl)amide]
14 | 3.3 | Cc1cc(C(=O)NC2Cc3ccsc3C2)c(C)n1Cc1ccncc1 (stereo not drawn) [Example 18, 2,5-Dimethyl-1-pyridin-4-ylmethyl-1H-pyrrole-3-carboxylic acid (5,6-dihydro-4H-cyclopenta[b]thiophen-5-yl)amide, trifluoroacetic acid salt]
15 | 20 | Cc1nc(C)c(C(=O)NC2Cc3ccsc3C2)s1 (stereo not drawn) [Example 19, 2,4-Dimethylthiazole-5-carboxylic acid (5,6-dihydro-4H-cyclopenta[b]thiophen-5-yl)amide]
16 | 9.8 | Cc1nn(C)cc1C(=O)NC1Cc2ccsc2C1 (stereo not drawn) [Example 20, 1,3-Dimethyl-1H-pyrazole-4-carboxylic acid (5,6-dihydro-4H-cyclopenta[b]thiophen-5-yl)amide]
17 | 4.8 | Nc1ncccc1C(=O)NC1Cc2ccsc2C1 (stereo not drawn) [Example 21, 2-Amino-N-(5,6-dihydro-4H-cyclopenta[b]thiophen-5-yl)nicotinamide, trifluoroacetic acid salt]
18 | 1.6 | Cc1ccc(C(=O)NC2Cc3ccsc3C2)cn1 (stereo not drawn) [Example 22, N-(5,6-Dihydro-4H-cyclopenta[b]thiophen-5-yl)-6-methylnicotinamide, trifluoroacetic acid salt]
19 | 0.8 | Cc1ccc(C(=O)NC2Cc3ccsc3C2)c(Cl)n1 (stereo not drawn) [Example 23, 2-Chloro-N-(5,6-dihydro-4H-cyclopenta[b]thiophen-5-yl)-6-methylnicotinamide]
20 | 125 | COCc1ccc(C(=O)NC2Cc3ccsc3C2)cn1 (stereo not drawn) [Example 24, N-(5,6-Dihydro4H-cyclopenta[b]thiophen-5-yl)-6-methoxymethylnicotinamide, trifluoroacetic acid salt]
21 | 18 | Nc1nccnc1C(=O)NC1Cc2ccsc2C1 (stereo not drawn) [Example 25, 3-Aminopyrazine-2-carboxylic acid (5,6-dihydro-4H-cyclopenta[b]thiophen-5-yl)amide]
22 | 1.5 | O=C(NC1Cc2ccsc2C1)c1cccc(Cl)c1Cl (stereo not drawn) [Example 26, 2,3-Dichloro-N-(5,6-dihydro-4H-cyclopenta[b]thiophen-5-yl)benzamide]
23 | < 0.1 | Cc1ccc(C(=O)NC2Cc3ccsc3C2)c(C)c1 (stereo not drawn) [Example 27, N-(5,6-Dihydro-4H-cyclopenta[b]thiophen-5-yl)-2,4-dimethylbenzamide]
24 | 0.76 | O=C(NC1Cc2ccsc2C1)c1ccc(F)cc1F (stereo not drawn) [Example 28, N-(5,6-Dihydro-4H-cyclopenta[b]thiophen-5-yl)-2,4-difluorobenzamide]
25 | 2.3 | CS(=O)(=O)Nc1cccc(C(=O)NC2Cc3ccsc3C2)c1 (stereo not drawn) [Example 29, N-(5,6-Dihydro-4H-cyclopenta[b]thiophen-5-yl)-3-methylsulfonylaminobenzamide]
26 | 11 | O=C(NC1Cc2ccsc2C1)c1ccc(N2CCOCC2)nc1 (stereo not drawn) [Example 30, N-(5,6-Dihydro-4H-cyclopenta[b]thiophen-5-yl)-6-(morpholin-4-yl)nicotinamide, trifluoroacetic acid salt]
27 | 3.3 | O=C(NC1Cc2ccsc2C1)c1cccc(N2CCOCC2)c1 (stereo not drawn) [Example 31, N-(5,6-Dihydro-4H-cyclopenta[b]thiophen-5-yl)-3-(morpholin-4-yl)benzamide]
